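Where inhibition never reached the appropriate level, the endpoint shown equals the highest concentration tested. Otherwise, values were interpolated linearly from a five-concentration, 48-hour dose response in 96-well plates. At the GI50, growth is halved.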 Calls of active or inactive are those of the source. Rule as the data show it: active = GI50 up to about 1.1 µM and inactive = higher.
Columns and labels:
Assay in all cases: inhibition of tumour cell growth, NCI panel, 48 h
NCI-H23 = system: NCI-H23
SNB-75 = system: SNB-75
SK-OV-3 = system: SK-OV-3
K562 = system: K562
OVCAR-4 = system: OVCAR-4
SK-MEL-5 = system: SK-MEL-5
NCI/ADR-RES = system: NCI/ADR-RES
786-0 = system: 786-0
SR = system: SR
OVCAR-5 = system: OVCAR-5
SK-MEL-2 = system: SK-MEL-2
SF-268 = system: SF-268
SW-620 = system: SW-620
HOP-62 = system: HOP-62
CAKI-1 = system: CAKI-1
MCF7 = system: MCF7
T47D = system: T47D
NCI-H460 = system: NCI-H460
RPMI-8226 = system: RPMI-8226
RXF 393 = system: RXF 393
A549 = system: A549
U-251 = system: U-251
SK-MEL-28 = system: SK-MEL-28
ACHN = system: ACHN
SNB-19 = system: SNB-19
MOLT-4 = system: MOLT-4
A498 = system: A498
HT-29 = system: HT-29
OVCAR-3 = system: OVCAR-3
UACC-257 = system: UACC-257
HCT-116 = system: HCT-116
NCI-H522 = system: NCI-H522
COLO 205 = system: COLO 205
OVCAR-8 = system: OVCAR-8
HCC 2998 = system: HCC 2998
HOP-92 = system: HOP-92
M14 = system: M14
UACC-62 = system: UACC-62
Malme-3M = system: Malme-3M
PC-3 = system: PC-3
MDA-MB-231 = system: MDA-MB-231
SF-539 = system: SF-539
SN12C = system: SN12C
NCI-H226 = system: NCI-H226
LOX IMVI = system: LOX IMVI
Hs-578T = system: Hs-578T
KM12 = system: KM12
IGROV-1 = system: IGROV-1
MDA-MB-435 = system: MDA-MB-435
EKVX = system: EKVX
SF-295 = system: SF-295
TK-10 = system: TK-10
HCT-15 = system: HCT-15
DU-145 = system: DU-145
UO-31 = system: UO-31
MDA-N = system: MDA-N

`O=CC(O)C(O)C(O)C(O)COP(=O)(O)Cc1ccccc1` (stereo not drawn) was tested. Which GI50 (NCI-H23) did it give?
Its GI50 is > 10 µM (inactive).

What about the GI50 (SNB-75) of the same compound?
The GI50 was > 10 µM (inactive).

And the GI50 (SK-OV-3)?
The GI50 was > 10 µM (inactive).

What about the GI50 (K562) of the same compound?
The GI50 was > 10 µM (inactive).

What about the GI50 (OVCAR-4) of the same compound?
The GI50 was > 10 µM (inactive).

What about the GI50 (SK-MEL-5) of the same compound?
Its GI50 is > 10 µM (inactive).

And the GI50 (NCI/ADR-RES)?
Its GI50 is > 10 µM (inactive).

And the GI50 (786-0)?
Its GI50 is > 10 µM (inactive).

What about the GI50 (SR) of the same compound?
The GI50 was > 10 µM (inactive).

And the GI50 (OVCAR-5)?
The GI50 was > 10 µM (inactive).

And the GI50 (SK-MEL-2)?
Its GI50 is > 10 µM (inactive).

What about the GI50 (SF-268) of the same compound?
The GI50 was > 10 µM (inactive).

And the GI50 (SW-620)?
The GI50 was > 10 µM (inactive).

And the GI50 (HOP-62)?
The GI50 was > 10 µM (inactive).

And the GI50 (CAKI-1)?
The GI50 was > 10 µM (inactive).

And the GI50 (MCF7)?
Its GI50 is > 10 µM (inactive).

What about the GI50 (T47D) of the same compound?
The GI50 was > 10 µM (inactive).

What about the GI50 (NCI-H460) of the same compound?
Its GI50 is > 10 µM (inactive).

And the GI50 (RPMI-8226)?
The GI50 was > 10 µM (inactive).

And the GI50 (RXF 393)?
The GI50 was > 10 µM (inactive).

And the GI50 (A549)?
Its GI50 is > 10 µM (inactive).

And the GI50 (U-251)?
The GI50 was > 10 µM (inactive).

And the GI50 (SK-MEL-28)?
The GI50 was > 10 µM (inactive).

And the GI50 (ACHN)?
Its GI50 is > 10 µM (inactive).

With `O/N=C1/COC(C(F)(F)F)(C(F)(F)F)C1` as the compound, how does the GI50 (SNB-19) read?
Its GI50 is > 100 µM (inactive).

What about the GI50 (MOLT-4) of the same compound?
The GI50 was > 100 µM (inactive).

And the GI50 (NCI-H23)?
The GI50 was > 100 µM (inactive).

What about the GI50 (SNB-75) of the same compound?
The GI50 was > 100 µM (inactive).

What about the GI50 (A498) of the same compound?
The GI50 was > 100 µM (inactive).

And the GI50 (HT-29)?
The GI50 was > 100 µM (inactive).

And the GI50 (OVCAR-3)?
Its GI50 is > 100 µM (inactive).

And the GI50 (SK-OV-3)?
The GI50 was > 100 µM (inactive).

And the GI50 (UACC-257)?
The GI50 was > 100 µM (inactive).

And the GI50 (OVCAR-4)?
Its GI50 is > 100 µM (inactive).

What about the GI50 (SK-MEL-5) of the same compound?
Its GI50 is > 100 µM (inactive).

What about the GI50 (NCI/ADR-RES) of the same compound?
Its GI50 is > 100 µM (inactive).

What about the GI50 (HCT-116) of the same compound?
The GI50 was > 100 µM (inactive).

What about the GI50 (786-0) of the same compound?
The GI50 was > 100 µM (inactive).

What about the GI50 (NCI-H522) of the same compound?
Its GI50 is > 100 µM (inactive).

What about the GI50 (SR) of the same compound?
Its GI50 is 0.0573 µM (active).

What about the GI50 (COLO 205) of the same compound?
The GI50 was > 100 µM (inactive).

What about the GI50 (OVCAR-8) of the same compound?
Its GI50 is > 100 µM (inactive).

What about the GI50 (HCC 2998) of the same compound?
The GI50 was > 100 µM (inactive).

And the GI50 (HOP-92)?
The GI50 was > 100 µM (inactive).

What about the GI50 (OVCAR-5) of the same compound?
The GI50 was > 100 µM (inactive).

And the GI50 (M14)?
The GI50 was > 100 µM (inactive).

What about the GI50 (UACC-62) of the same compound?
Its GI50 is > 100 µM (inactive).

What about the GI50 (SK-MEL-2) of the same compound?
The GI50 was > 100 µM (inactive).

What about the GI50 (SF-268) of the same compound?
The GI50 was > 100 µM (inactive).

And the GI50 (Malme-3M)?
Its GI50 is > 100 µM (inactive).

And the GI50 (PC-3)?
The GI50 was > 100 µM (inactive).

What about the GI50 (MDA-MB-231) of the same compound?
Its GI50 is > 100 µM (inactive).

And the GI50 (SF-539)?
The GI50 was > 100 µM (inactive).

What about the GI50 (SN12C) of the same compound?
Its GI50 is > 100 µM (inactive).

And the GI50 (NCI-H226)?
The GI50 was > 100 µM (inactive).

And the GI50 (LOX IMVI)?
Its GI50 is > 100 µM (inactive).

What about the GI50 (Hs-578T) of the same compound?
Its GI50 is > 100 µM (inactive).

And the GI50 (SW-620)?
Its GI50 is > 100 µM (inactive).

What about the GI50 (KM12) of the same compound?
Its GI50 is > 100 µM (inactive).

What about the GI50 (IGROV-1) of the same compound?
Its GI50 is > 100 µM (inactive).

And the GI50 (MDA-MB-435)?
The GI50 was > 100 µM (inactive).

What about the GI50 (EKVX) of the same compound?
Its GI50 is > 100 µM (inactive).

What about the GI50 (HOP-62) of the same compound?
Its GI50 is > 100 µM (inactive).

What about the GI50 (CAKI-1) of the same compound?
The GI50 was > 100 µM (inactive).

And the GI50 (MCF7)?
Its GI50 is > 100 µM (inactive).

And the GI50 (T47D)?
The GI50 was > 100 µM (inactive).

What about the GI50 (SF-295) of the same compound?
Its GI50 is > 100 µM (inactive).

And the GI50 (TK-10)?
Its GI50 is > 100 µM (inactive).

What about the GI50 (NCI-H460) of the same compound?
The GI50 was > 100 µM (inactive).

What about the GI50 (RPMI-8226) of the same compound?
The GI50 was > 100 µM (inactive).

And the GI50 (RXF 393)?
Its GI50 is > 100 µM (inactive).

And the GI50 (A549)?
Its GI50 is > 100 µM (inactive).

What about the GI50 (HCT-15) of the same compound?
The GI50 was greater than 100 µM.

What about the GI50 (DU-145) of the same compound?
The GI50 was > 100 µM (inactive).

What about the GI50 (U-251) of the same compound?
Its GI50 is > 100 µM (inactive).

What about the GI50 (UO-31) of the same compound?
The GI50 was > 100 µM (inactive).

What about the GI50 (SK-MEL-28) of the same compound?
Its GI50 is > 100 µM (inactive).

And the GI50 (ACHN)?
The GI50 was > 100 µM (inactive).

How did the GI50 (SNB-19) turn out when `CN(NC(=O)CC(=O)NN(C)C(=S)c1ccccc1)C(=S)c1ccccc1` [ELESCLOMOL] was run?
Its GI50 is 84.7 µM (inactive).

And the GI50 (MDA-N)?
The GI50 was > 100 µM (inactive).

And the GI50 (HT-29)?
Its GI50 is < 0.01 µM (active).

What about the GI50 (OVCAR-3) of the same compound?
Its GI50 is > 100 µM (inactive).

And the GI50 (SK-OV-3)?
The GI50 was > 100 µM (inactive).

And the GI50 (HCT-116)?
Its GI50 is 62.1 µM (inactive).

What about the GI50 (SR) of the same compound?
The GI50 was 28.3 µM (inactive).

And the GI50 (HCC 2998)?
Its GI50 is 64.7 µM (inactive).

What about the GI50 (HOP-92) of the same compound?
Its GI50 is > 100 µM (inactive).

What about the GI50 (OVCAR-5) of the same compound?
Its GI50 is > 100 µM (inactive).

What about the GI50 (UACC-62) of the same compound?
Its GI50 is 50.2 µM (inactive).

What about the GI50 (SF-539) of the same compound?
The GI50 was > 100 µM (inactive).

And the GI50 (NCI-H226)?
Its GI50 is 83.8 µM (inactive).

What about the GI50 (LOX IMVI) of the same compound?
Its GI50 is 35.4 µM (inactive).

And the GI50 (SW-620)?
The GI50 was 67 µM (inactive).

And the GI50 (IGROV-1)?
The GI50 was > 100 µM (inactive).

And the GI50 (EKVX)?
The GI50 was 33.9 µM (inactive).

And the GI50 (SF-295)?
Its GI50 is 46 µM (inactive).

And the GI50 (TK-10)?
Its GI50 is > 100 µM (inactive).

And the GI50 (RPMI-8226)?
Its GI50 is < 0.01 µM (active).

— ChEMBL document CHEMBL1201862, “PubChem BioAssay data set” (2004)
